The target in test [1] is T1, TRPV3 T665A (Homo sapiens, UniProt Q8NET8, T665A).
T1 construct: expressed in transfected cells; host or cells: HEK293T
T1 sequence (Q8NET8 1-790 T665A): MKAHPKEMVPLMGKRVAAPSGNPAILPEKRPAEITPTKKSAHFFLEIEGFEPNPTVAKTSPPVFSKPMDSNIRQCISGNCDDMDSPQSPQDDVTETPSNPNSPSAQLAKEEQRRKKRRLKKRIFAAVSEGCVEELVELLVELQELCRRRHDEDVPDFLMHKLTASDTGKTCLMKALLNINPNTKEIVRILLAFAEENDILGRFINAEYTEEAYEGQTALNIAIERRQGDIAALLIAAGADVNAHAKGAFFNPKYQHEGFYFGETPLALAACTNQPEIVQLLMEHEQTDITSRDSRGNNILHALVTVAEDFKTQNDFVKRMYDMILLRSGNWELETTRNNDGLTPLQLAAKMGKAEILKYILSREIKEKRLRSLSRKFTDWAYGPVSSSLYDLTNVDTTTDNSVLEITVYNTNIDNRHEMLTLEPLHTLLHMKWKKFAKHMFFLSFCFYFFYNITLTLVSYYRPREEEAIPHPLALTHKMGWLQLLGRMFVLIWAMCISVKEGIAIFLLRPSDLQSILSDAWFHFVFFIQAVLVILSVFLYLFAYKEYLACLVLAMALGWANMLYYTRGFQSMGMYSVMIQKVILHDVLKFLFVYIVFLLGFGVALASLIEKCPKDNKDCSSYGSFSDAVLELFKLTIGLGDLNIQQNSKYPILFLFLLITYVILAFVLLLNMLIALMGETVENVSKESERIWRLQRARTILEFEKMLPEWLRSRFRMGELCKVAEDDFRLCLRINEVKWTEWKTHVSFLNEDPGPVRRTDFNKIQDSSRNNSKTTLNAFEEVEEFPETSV
Description: single-channel inside-out patch recordings of TRPV3 T665A mutant. In kind it is cell-based. Conditions: ROSA 100 μM co-applied with 2-APB 50 μM; n = 4. The method, then:
(§1) HEK293T cell line was obtained from the Cell Resource Center, Peking Union Medical College. HEK293T cells were maintained in Dulbecco’s modified Eagle’s medium (DMEM, Gibco) supplemented with 10% fetal bovine serum at 37 °C with 5% CO2. […] The next day, determine the plasmid transfection status by observing green fluorescence based on expression of enhanced GFP as an indicator. […] When conducting experiments on HEK293T cells transfected with G573S point mutant TRPV3 plasmid, we replaced culture medium with or without compounds after 4 h of transfection and then observed green fluorescence of HEK293T cell after 10 h. As for the relative fluorescence intensity, we convert the image to 8 bit grayscale using ImageJ (Https://imagej.net/software/fiji/downloads) and set an appropriate threshold value to reduce background noise and enhance the image contrast.
(§2) All patch-clamp recordings were conducted 16 to 24 h after transfection using an EPC10 amplifier powered by PatchMaster software (HEKA) (https://www.heka.com/downloads/downloads_main.html#down_patchmaster) at room temperature. […] Currents were recorded at a potential ramp from −100 mV to +100 mV for 1000 ms with 1000-ms intervals (for whole-cell recordings) or a persistent potential of −60 mV (inside-out patch recordings). […]

The target of test [2] is T2, hTRPV4 (Homo sapiens, UniProt Q9HBA0).
T2 construct: expressed in transfected cells; host or cells: HEK293T
T2 sequence (Q9HBA0 whole entry): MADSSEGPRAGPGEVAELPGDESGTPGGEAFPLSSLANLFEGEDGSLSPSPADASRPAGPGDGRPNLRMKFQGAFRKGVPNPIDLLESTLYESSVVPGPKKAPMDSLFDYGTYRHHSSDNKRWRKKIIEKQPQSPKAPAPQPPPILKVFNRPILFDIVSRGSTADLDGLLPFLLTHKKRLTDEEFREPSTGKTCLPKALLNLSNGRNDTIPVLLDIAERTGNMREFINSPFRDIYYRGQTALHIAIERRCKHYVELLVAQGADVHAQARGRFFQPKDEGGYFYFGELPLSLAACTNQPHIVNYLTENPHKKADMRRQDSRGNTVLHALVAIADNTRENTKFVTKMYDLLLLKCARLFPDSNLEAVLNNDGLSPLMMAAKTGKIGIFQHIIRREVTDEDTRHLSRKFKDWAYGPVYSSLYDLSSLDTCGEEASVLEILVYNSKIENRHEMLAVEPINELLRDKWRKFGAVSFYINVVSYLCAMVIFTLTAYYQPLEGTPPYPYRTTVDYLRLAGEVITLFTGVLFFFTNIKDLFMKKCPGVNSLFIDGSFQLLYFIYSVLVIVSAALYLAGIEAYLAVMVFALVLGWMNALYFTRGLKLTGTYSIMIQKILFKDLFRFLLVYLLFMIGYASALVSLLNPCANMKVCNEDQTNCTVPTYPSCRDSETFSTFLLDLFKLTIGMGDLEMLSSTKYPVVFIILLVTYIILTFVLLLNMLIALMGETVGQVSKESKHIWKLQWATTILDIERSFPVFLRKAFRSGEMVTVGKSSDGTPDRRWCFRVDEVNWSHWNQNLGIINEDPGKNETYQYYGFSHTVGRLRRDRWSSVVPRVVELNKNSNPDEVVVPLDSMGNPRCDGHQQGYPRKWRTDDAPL
The experiment in a line: whole-cell patch-clamp of hTRPV4 currents activated by GSK101. In kind it is cell-based. The note with it: ROSA 50 μM; agonist GSK101 100 nM; read-out: inhibition of TRPV4 currents. The method, then:
as §1, §2
On the technique in general: The patch-clamp technique gives a direct electrical read-out from membranes.

For test [3], the system named is Car-induced ear swelling and dorsal skin inflammation in mice. Description: mouse model of ear swelling and dorsal skin inflammation induced by skin sensitizer Car (3%). In kind it is in vivo. The text has this:
Adult C57BL/6J mice (aged 6–8 weeks, weighing 20 ± 2 g) were purchased from the Beijing Vital River Laboratory Animal Technology Co. Ltd. TRPV3-KO mice were purchased from Cyagen Biosciences Inc. All mice were housed in plastic cages with natural poplar wood bedding materials, accommodating three to five mice per cage. The housing environment was maintained at a controlled room temperature of (23 ± 2) °C and humidity of (50 ± 5) %, with 12-h light/dark cycle (lights on at 7:00 AM and off at 7:00 PM). Mice had free access to food and water. All animal test protocols were approved by the Institutional Animal Care and Use Committee of Qingdao University Health Science Center and were conducted in accordance with institutional and national guidelines for the use and care of animals in experiments. All mice were anesthetized with isoflurane (1%–1.5%) using an isoflurane gas anesthesia device and were euthanized under anesthesia.
Skin sensitizer Car was dissolved in saline solution containing 30% ethanol. The dorsal skin or ear of mice was swabbed with 3% Car for four consecutive days. To investigate the effects of ROSA, it was diluted to concentration of 0.1/1/10 mM with saline and topically applied on the ear and dorsal skin once a day for 4 days. The control group only received swabs with the solvent.

With `O=C(/C=C/c1ccc(O)c(O)c1)O[C@H](Cc1ccc(O)c(O)c1)C(=O)O` [ROSA, rosmarinic acid], in test [1], the “single-channel open probability, T665A mutant” value is 0.69. For the same compound, the inhibition (in general, the change of the read-out against control, counted positive when it falls) at 50 µM in test [2] is 2 ± 7.3%. The “ear thickness in Trpv3 KO mice” value in test [3] (topical ROSA 10 mM, Trpv3 KO mice, Car) is listed as “no further reduction of ear thickness”. For the same compound, in test [3] (topical ROSA 0.1, 1.0 and 10 mM once a day for 4 days, 3% Car, compared to Car alone), the “ear and dorsal skin inflammation” value was “significantly alleviated the ear and dorsal skin inflammation”. Besides, the ear swelling scores result in test [3] (topical ROSA 0.1, 1.0 and 10 mM, 3% Car, compared to Car alone) is “reduced the ear swelling scores in both dose- and time-dependent manner”. Further, the ear thickness entry in test [3] (topical ROSA, 3% Car, compared to Car alone) is on record as “reduction in ear thickness was also evident, starting on the third day”. For the same compound, the “dermatitis scores, dorsal skin” value in test [3] (topical ROSA, 3% Car, fourth day) was “significant difference in dermatitis scores between the ROSA group and the Car group”.

Values taken from publication PMC12206033, “Selective inhibition of TRPV3 channel by natural rosmarinic acid and its analogs for alleviation of skin lesions through downregulation of NF-κB pathway” (The Journal of Biological Chemistry, 2025).
